Measurements from article PMC6338342 (Journal of chromatography. B, Analytical technologies in …, 2016).
Like-named read-outs stand apart in the source and are kept apart here.

How the values were obtained:
[1] = rat, in vivo, po
in vivo = conditions: male, Sprague-Dawley, rat, po
UMR106 cells = test: MTT cell proliferation assay; assay type: cell-based; conditions: 0.01, 0.1, 1, 10 μM, 24 h
UMR 106 cells = test: Alkaline phosphatase; assay type: cell-based; conditions: 0.01, 0.1, 1 μM, 48 h
3T3-L1 cells = test: Adipocyte differentiation and Oil Red O staining; assay type: cell-based; conditions: 1 or 10 μM, Oil Red O staining on day 8
[2] = male, Sprague-Dawley, rat, in vivo, po, 3 g/kg
[3] = male, Sprague-Dawley, rat, in vivo, po, 6 g/kg
[4] = male, Sprague-Dawley, rat, in vivo, po, 12 g/kg
[5] = male, Sprague-Dawley, rat, serum, po, 3 g/kg
[6] = male, Sprague-Dawley, rat, serum, po, 6 g/kg
[7] = male, Sprague-Dawley, rat, serum, po, 12 g/kg
[8] = rat serum, oral XLGB extract 3 g/kg, n = 6
[9] = rat serum, oral XLGB extract 6 g/kg, n = 6
[10] = rat serum, oral XLGB extract 12 g/kg, n = 6

CC1(C)CC[C@]2(C(=O)O[C@@H]3O[C@H](CO[C@@H]4O[C@H](CO)[C@@H](O)[C@H](O)[C@H]4O)[C@@H](O)[C@H](O)[C@H]3O)CC[C@]3(C)C(=CC[C@@H]4[C@@]5(C)CC[C@H](O[C@@H]6OC[C@H](O)[C@H](O)[C@H]6O)[C@@](C)(CO)[C@@H]5CC[C@]43C)[C@@H]2C1 [Akebia saponin D, akebia saponin D]
AUC0–∞ ([1]; 6 g/kg): 756.83 ± 140.72 ng·h/mL
AUC(0-t) ([1]; 6 g/kg): 731.52 ± 131.54 ng·h/mL
MRT0–t ([1]; 6 g/kg): 2.41 ± 0.25 h
MRT0–∞ ([1]; 6 g/kg): 2.63 ± 0.25 h
AUC0–∞ ([1]; 12 g/kg): 2658.47 ± 241.31 ng·h/mL
AUC(0-t) ([1]; 12 g/kg): 2642.49 ± 233.18 ng·h/mL
MRT0–t ([1]; 12 g/kg): 5.03 ± 0.32 h
MRT0–∞ ([1]; 12 g/kg): 5.91 ± 0.50 h

O=c1ccc2ccc3occc3c2o1 [Isopsoralen, isopsoralen]
AUC(0-inf) [2]: 2470 ± 494 ng·h/mL
AUC(0-t) [2]: 2390 ± 460 ng·h/mL
Cmax [2]: 270 ± 35 ng/mL
MRT inf [2]: 8.73 ± 3.76 h
MRT last [2]: 7.49 ± 2.83 h
Tmax [2]: 3.5 ± 2.49 h
half-life [2]: 6.88 ± 4.89 h
AUC(0-t) [3]: 15100 ± 1290 ng·h/mL
Cmax [3]: 1140 ± 100 ng/mL
MRT inf [3]: 12.2 ± 0.75 h
MRT last [3]: 11.7 ± 0.83 h
Tmax [3]: 3.67 ± 0.52 h
half-life [3]: 6.78 ± 1.09 h
AUC(0-inf) [4]: 19900 ± 2020 ng·h/mL
AUC(0-t) [4]: 19400 ± 2000 ng·h/mL
Cmax [4]: 1240 ± 72.2 ng/mL
MRT inf [4]: 14.2 ± 1.43 h
MRT last [4]: 13.3 ± 0.43 h
Tmax [4]: 1.67 ± 0.41 h
half-life [4]: 6.86 ± 3.44 h

COc1ccc2c(c1O)-c1c(O)c(OC)cc3c1[C@H](C2)[N+](C)(C)CC3 [Magnoflorine, magnoflorine]
AUC(0-inf) [5]: 320 ± 96.9 ng·h/mL
AUC(0-t) [5]: 264 ± 76.2 ng·h/mL
Cmax [5]: 31.8 ± 4.77 ng/mL
MRT inf [5]: 26.2 ± 8.51 h
MRT last [5]: 16.4 ± 4.54 h
Tmax [5]: 0.5 h
half-life [5]: 20 ± 8.43 h
AUC(0-inf) [6]: 4610 ± 572 ng·h/mL
AUC(0-t) [6]: 2600 ± 249 ng·h/mL
Cmax [6]: 652 ± 64.6 ng/mL
MRT inf [6]: 44.4 ± 6.88 h
MRT last [6]: 17.3 ± 0.63 h
Tmax [6]: 0.67 ± 0.26 h
half-life [6]: 21.8 ± 4.2 h
AUC(0-inf) [7]: 3480 ± 121 ng·h/mL
AUC(0-t) [7]: 3330 ± 130 ng·h/mL
Cmax [7]: 1160 ± 102 ng/mL
MRT inf [7]: 9.43 ± 0.47 h
MRT last [7]: 6.67 ± 0.32 h
Tmax [7]: 1.67 ± 0.26 h
half-life [7]: 13.4 ± 0.75 h

CC(C)=CCc1cc(-c2coc3cc(O)ccc3c2=O)ccc1O [Neobavaisoflavone, neobavaisoflavone]
AUC(0-inf) [5]: 7.24 ± 6.25 ng·h/mL
AUC(0-t) [5]: 2.1 ± 0.78 ng·h/mL
Cmax [5]: 1.46 ± 0.38 ng/mL
MRT last [5]: 1.57 ± 0.81 h
Tmax [5]: 0.5 h
half-life [5]: 6.28 ± 7.25 h
AUC(0-inf) [6]: 60.6 ± 41 ng·h/mL
AUC(0-t) [6]: 41.1 ± 19 ng·h/mL
Cmax [6]: 10.7 ± 0.59 ng/mL
MRT inf [6]: 19.3 ± 20.7 h
MRT last [6]: 9.13 ± 9.19 h
Tmax [6]: 0.58 ± 0.2 h
half-life [6]: 11.2 ± 9.11 h
AUC(0-inf) [7]: 127 ± 32.3 ng·h/mL
AUC(0-t) [7]: 110 ± 30.3 ng·h/mL
Cmax [7]: 18.4 ± 5.4 ng/mL
MRT inf [7]: 17.2 ± 9.5 h
MRT last [7]: 8.79 ± 2.43 h
half-life [7]: 16.2 ± 10.3 h

O=c1ccc2cc3ccoc3cc2o1 [Psoralen, psoralen]
AUC(0-inf) [5]: 2810 ± 701 ng·h/mL
AUC(0-t) [5]: 2740 ± 682 ng·h/mL
Cmax [5]: 290 ± 23.3 ng/mL
MRT inf [5]: 8.4 ± 2.93 h
MRT last [5]: 7.55 ± 2.44 h
Tmax [5]: 4.5 ± 1.22 h
half-life [5]: 6.39 ± 3.73 h
AUC(0-inf) [6]: 18500 ± 529 ng·h/mL
AUC(0-t) [6]: 18300 ± 511 ng·h/mL
Cmax [6]: 1380 ± 150 ng/mL
MRT inf [6]: 12.2 ± 0.9 h
MRT last [6]: 11.8 ± 0.99 h
Tmax [6]: 2.92 ± 1.28 h
half-life [6]: 6.78 ± 1 h
AUC(0-inf) [7]: 28400 ± 877 ng·h/mL
AUC(0-t) [7]: 28300 ± 899 ng·h/mL
Cmax [7]: 1910 ± 118 ng/mL
MRT inf [7]: 13.3 ± 1.18 h
MRT last [7]: 13.2 ± 1.14 h
half-life [7]: 4.2 ± 0.42 h

COc1ccc(-c2oc3c(CC=C(C)C)c(O[C@@H]4O[C@H](CO)[C@@H](O)[C@H](O)[C@H]4O)cc(O)c3c(=O)c2O[C@@H]2O[C@@H](C)[C@H](O)[C@@H](O)[C@H]2O[C@@H]2O[C@@H](C)[C@H](O)[C@@H](O)[C@H]2O)cc1 [Epimedin C, epimedin C]
AUC0–∞ ([1]; 3 g/kg): 69.33 ± 37.54 ng·h/mL
AUC(0-t) ([1]; 3 g/kg): 21.70 ± 3.40 ng·h/mL
MRT0–t ([1]; 3 g/kg): 1.41 ± 1.01 h
MRT0–∞ ([1]; 3 g/kg): 20.72 ± 19.70 h
AUC0–∞ ([1]; 6 g/kg): 1365.29 ± 80.31 ng·h/mL
AUC(0-t) ([1]; 6 g/kg): 1361.31 ± 79.46 ng·h/mL
MRT0–t ([1]; 6 g/kg): 1.45 ± 0.08 h
MRT0–∞ ([1]; 6 g/kg): 1.47 ± 0.08 h
AUC0–∞ ([1]; 12 g/kg): 4527.69 ± 474.54 ng·h/mL
AUC(0-t) ([1]; 12 g/kg): 4397.49 ± 435.63 ng·h/mL
MRT0–t ([1]; 12 g/kg): 3.07 ± 0.63 h
MRT0–∞ ([1]; 12 g/kg): 5.10 ± 4.50 h

C=C[C@H]1[C@H](O[C@@H]2O[C@H](CO)[C@@H](O)[C@H](O)[C@H]2O)OC=C2C(=O)OCC[C@H]21 [Sweroside, sweroside]
AUC(0-inf) (in vivo; 3 g/kg): 452 ± 50.3 ng·h/mL
AUC(0-t) (in vivo; 3 g/kg): 313 ± 39.1 ng·h/mL
Cmax (in vivo; 3 g/kg): 35.6 ± 2.27 ng/mL
MRT inf (in vivo; 3 g/kg): 31.7 ± 4.64 h
Tmax (in vivo; 3 g/kg): 1.17 ± 0.26 h
half-life (in vivo; 3 g/kg): 21.3 ± 3.33 h
AUC(0-inf) (in vivo; 6 g/kg): 690 ± 110 ng·h/mL
AUC(0-t) (in vivo; 6 g/kg): 598 ± 59.4 ng·h/mL
Cmax (in vivo; 6 g/kg): 135 ± 10.2 ng/mL
MRT inf (in vivo; 6 g/kg): 16.7 ± 7.3 h
MRT last (in vivo; 6 g/kg): 8.31 ± 2.11 h
half-life (in vivo; 6 g/kg): 13.8 ± 7.36 h
AUC(0-inf) (in vivo; 12 g/kg): 1330 ± 97.9 ng·h/mL
AUC(0-t) (in vivo; 12 g/kg): 1150 ± 35.3 ng·h/mL
Cmax (in vivo; 12 g/kg): 301 ± 19.4 ng/mL
MRT inf (in vivo; 12 g/kg): 19.2 ± 6.86 h
MRT last (in vivo; 12 g/kg): 8.25 ± 0.83 h
Tmax (in vivo; 12 g/kg): 0.5 h
half-life (in vivo; 12 g/kg): 23.7 ± 12.3 h
effect on proliferation of UMR 106 cells (UMR106 cells): excellent bioactivities
effect on alkaline phosphatase (ALP) activity of UMR 106 cells (UMR 106 cells): excellent bioactivities
effect on adipogenesis of 3T3-L1 cells (3T3-L1 cells): excellent bioactivities

corylin
AUC0–∞ ([1]; 3 g/kg): 86.37 ± 67.67 ng·h/mL
AUC(0-t) ([1]; 3 g/kg): 10.62 ± 3.66 ng·h/mL
MRT0–t ([1]; 3 g/kg): 5.60 ± 5.20 h
MRT0–∞ ([1]; 3 g/kg): 51.11 ± 29.69 h
AUC0–∞ ([1]; 6 g/kg): 227.72 ± 52.75 ng·h/mL
AUC(0-t) ([1]; 6 g/kg): 166.50 ± 26.45 ng·h/mL
MRT0–t ([1]; 6 g/kg): 16.55 ± 4.24 h
MRT0–∞ ([1]; 6 g/kg): 33.27 ± 11.40 h
AUC0–∞ ([1]; 12 g/kg): 442.39 ± 107.76 ng·h/mL
AUC(0-t) ([1]; 12 g/kg): 386.15 ± 84.00 ng·h/mL
MRT0–t ([1]; 12 g/kg): 14.73 ± 1.76 h
MRT0–∞ ([1]; 12 g/kg): 20.65 ± 3.78 h

CC(C)=CCc1cc2c(cc1O)oc(=O)c1c3ccc(O)cc3oc21 [Psoralidin, psoralidin]
AUC0–∞ ([1]; 6 g/kg): 11.58 ± 0.94 ng·h/mL
AUC(0-t) ([1]; 6 g/kg): 8.80 ± 1.38 ng·h/mL
MRT0–t ([1]; 6 g/kg): 1.78 ± 0.36 h
MRT0–∞ ([1]; 6 g/kg): 3.13 ± 0.36 h
AUC0–∞ ([1]; 12 g/kg): 34.27 ± 16.04 ng·h/mL
AUC(0-t) ([1]; 12 g/kg): 27.78 ± 13.97 ng·h/mL
MRT0–t ([1]; 12 g/kg): 2.05 ± 0.45 h
MRT0–∞ ([1]; 12 g/kg): 2.78 ± 0.68 h
effect on adipogenesis of 3T3-L1 cells (3T3-L1 cells): obviously inhibited adipocyte formation

bavachinin
AUC0–∞ [8]: 53.60 ± 27.93 ng·h/mL
AUC(0-t) [8]: 31.63 ± 11.39 ng·h/mL
Cmax [8]: 10.25 ± 2.84 ng/mL
MRT0–t [8]: 6.26 ± 4.26 h
MRT0–∞ [8]: 18.47 ± 15.68 h
Tmax [8]: 0.50 ± 0 h
t1/2 [8]: 11.51 ± 9.48 h
AUC0–∞ [9]: 406.85 ± 56.64 ng·h/mL
AUC(0-t) [9]: 346.62 ± 36.95 ng·h/mL
Cmax [9]: 20.41 ± 2.63 ng/mL
MRT0–t [9]: 19.50 ± 3.03 h
MRT0–∞ [9]: 28.15 ± 8.89 h
Tmax [9]: 1.25 ± 1.04 h
t1/2 [9]: 19.08 ± 8.31 h
AUC0–∞ [10]: 379.76 ± 59.32 ng·h/mL
AUC(0-t) [10]: 343.30 ± 61.62 ng·h/mL
Cmax [10]: 36.00 ± 4.29 ng/mL
MRT0–t [10]: 13.56 ± 2.69 h
MRT0–∞ [10]: 18.40 ± 3.38 h
Tmax [10]: 1.58 ± 0.38 h
t1/2 [10]: 12.57 ± 3.06 h
